Experimental findings from publication PMC2679894 (Journal of molecular biology, 2009) are described below.

The experiment deals with KsgA (Thermus thermophilus, UniProt Q5SM60). The experiment is described as follows: X-ray crystal structure. The note with it: cofactor-binding site; co-crystallised with 4 mM adenosine and 4 mM AdoMet, 50 °C for 10 min; crystal form KsgA2.
Sequence of KsgA (Q5SM60 whole entry): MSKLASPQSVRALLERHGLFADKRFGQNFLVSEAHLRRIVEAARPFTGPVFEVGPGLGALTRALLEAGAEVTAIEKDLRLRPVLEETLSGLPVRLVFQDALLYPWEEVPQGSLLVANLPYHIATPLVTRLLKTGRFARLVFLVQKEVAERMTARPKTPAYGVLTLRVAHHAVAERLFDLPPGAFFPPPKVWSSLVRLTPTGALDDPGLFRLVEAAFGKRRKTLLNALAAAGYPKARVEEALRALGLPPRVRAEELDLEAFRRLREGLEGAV

For `Nc1ncnc2c1ncn2[C@@H]1O[C@H](CO)[C@@H](O)[C@H]1O` [adenosine], the X-ray crystal structure entry is “these crystals were found to have adenosine in the cofactor-binding site”.
